Assay type in all cases: cell-based
Assay [1] has as its target T1, hM1 (human Muscarinic receptor subtype 1) (Homo sapiens, UniProt P11229).
T1 construct: expressed in transfected cells; host or cells: CHO cells (ATCC)
T1 sequence (P11229 1-460): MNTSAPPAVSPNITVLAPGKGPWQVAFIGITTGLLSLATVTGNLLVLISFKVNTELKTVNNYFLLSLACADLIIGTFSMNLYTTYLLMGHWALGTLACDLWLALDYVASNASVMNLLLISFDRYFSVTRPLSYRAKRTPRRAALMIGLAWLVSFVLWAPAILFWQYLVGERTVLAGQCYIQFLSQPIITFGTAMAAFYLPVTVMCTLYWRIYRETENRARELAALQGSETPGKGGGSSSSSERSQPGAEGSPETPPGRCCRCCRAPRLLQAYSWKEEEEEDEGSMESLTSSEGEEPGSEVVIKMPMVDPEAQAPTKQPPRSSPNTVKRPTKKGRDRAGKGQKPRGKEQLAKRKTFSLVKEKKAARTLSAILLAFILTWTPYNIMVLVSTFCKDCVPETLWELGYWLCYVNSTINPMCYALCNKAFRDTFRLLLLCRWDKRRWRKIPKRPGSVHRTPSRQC
Kind of assay: Human M1 calcium mobilization FLIPR assay. The note with it: hM1 expressed in CHO cells, intracellular Ca2+ release (FLIPR). In a few lines:
(§1)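 CHO cells expressing human M1, M3 or M5 receptors, dye-loaded 60 min at 37 °C; Ca2+ release read by FLIPR (510-570 nm). M3/M5 inhibition measured against 2 nM acetylcholine added after compound; M1 agonism from maximal RFU, others max minus min. pEC50/pIC50 from sigmoidal fits, 10-point three-fold dilutions.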

Assay [2] has as its target T2, hM3 (human Muscarinic receptor subtype 3) (Homo sapiens, UniProt P20309).
T2 construct: expressed in transfected cells; host or cells: CHO cells (ATCC)
Kind of assay: Human M3 calcium mobilization FLIPR assay. The conditions noted are these: hM3 expressed in CHO cells, intracellular Ca2+ release (FLIPR). In a few lines:
as §1
(A change in cytosolic calcium serves as a functional read-out for many receptors and channels.)

For assay [3], the target named is T3, hM5 (human Muscarinic receptor subtype 5) (Homo sapiens, UniProt P08912).
T3 construct: expressed in transfected cells; host or cells: CHO cells (ATCC)
T3 sequence (P08912 1-532): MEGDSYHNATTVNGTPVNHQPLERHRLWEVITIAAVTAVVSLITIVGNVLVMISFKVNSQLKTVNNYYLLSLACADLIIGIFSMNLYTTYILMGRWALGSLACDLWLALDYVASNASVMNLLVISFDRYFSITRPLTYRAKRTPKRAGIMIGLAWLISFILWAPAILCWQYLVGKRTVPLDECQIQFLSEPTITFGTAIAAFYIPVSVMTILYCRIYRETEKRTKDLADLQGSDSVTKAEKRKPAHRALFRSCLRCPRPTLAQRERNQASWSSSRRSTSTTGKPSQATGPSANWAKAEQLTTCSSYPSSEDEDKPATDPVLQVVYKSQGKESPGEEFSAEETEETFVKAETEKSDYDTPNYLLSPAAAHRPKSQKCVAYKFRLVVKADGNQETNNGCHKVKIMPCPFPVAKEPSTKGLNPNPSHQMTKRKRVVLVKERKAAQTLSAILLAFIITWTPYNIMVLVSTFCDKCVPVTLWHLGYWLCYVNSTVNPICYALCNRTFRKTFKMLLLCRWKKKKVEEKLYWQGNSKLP
The assay can be described thus: Human M5 calcium mobilization FLIPR assay. The note with it: hM5 expressed in CHO cells, intracellular Ca2+ release (FLIPR). As for the experimental part:
Human M1, rat M1, Human M3 and Human M5 Calcium Mobilization FLIPR™ Assay The compound activity in the present invention (EC50 or IC50) is measured using a 384 plate-based imaging assay that monitors drug induced intracellular Ca^2+ release in whole cells. Activation of hM1 (human Muscarinic receptor subtype 1, gene bank access NM_000738), rM1 (rat Muscarinic receptor subtype 1, gene bank access NM_080773), hM3 (human Muscarinic receptor subtype 3, gene bank access NM_000740NM_000740) and hM5 (human Muscarinic receptor subtype 5, gene bank access NM_0121258), receptors expressed in CHO cells (Chinese hamster ovary cells, ATCC) is quantified in a Molecular Devices FLIPR IITM instrument as an increase in fluorescent signal. Inhibition of hM3 and hM5 by compounds is determined by the decrease in fluorescent signal in response to 2 nM acetylcholine activation. […] Prior to experiment, the cell culture medium is removed from the plates by inversion. […] Plates are incubated at 37° C. for 60 minutes prior to start the experiment. The incubation is terminated by washing the cells four times in assay buffer, leaving a residual 25 μl buffer per well. Cell plates are then transferred to the FLIPR, ready for compound additions. The day of experiment, acetylcholine and compounds are diluted in assay buffer in three-fold concentration range (10 points serial dilution) for addition by FLIPR instrument. For all calcium assays, a baseline reading is taken for 10 seconds followed by the addition of 12.5 μl of compounds, resulting in a total well volume of 37.5 μl. Data is collected every second for 60 pictures and then every 6 seconds for 20 pictures prior to the addition of agonist. For hM3 and hM5, before agonist addition, a second baseline reading is taken for 10 seconds followed by the addition of 12.5 μl of agonist or buffer, producing a final volume of 50 μl. After agonist stimulation, the FLIPR continues to collect data every second for 60 pictures and then every 6 seconds for 20 pictures. The fluorescence emission is read using filter 1 (emission 510-570 nm) by the FLIPR on board CCD camera. Calcium mobilization output data are calculated as the maximal relative fluorescence unit (RFU) minus the minimal value for both compound and agonist reading frame (except for hM1 and rM1 using only the maximal RFU). Data are analyzed using sigmoidal fits of a non-linear curve-fitting program (XLfit version 4.2.2 Excel add-in version 4.2.2 build 18 math 1Q version 2.1.2 build 18). All pEC50 and pIC50 values are reported as arithmetic means±standard error of mean of ‘n’ independent experiments.

Data on 2 compounds can be found in patent publication US20090275574A1, “NOVEL COMPOUNDS-300” (ASTRAZENECA AB, priority 2008, published 2009).

T2 sequence (P20309 whole entry): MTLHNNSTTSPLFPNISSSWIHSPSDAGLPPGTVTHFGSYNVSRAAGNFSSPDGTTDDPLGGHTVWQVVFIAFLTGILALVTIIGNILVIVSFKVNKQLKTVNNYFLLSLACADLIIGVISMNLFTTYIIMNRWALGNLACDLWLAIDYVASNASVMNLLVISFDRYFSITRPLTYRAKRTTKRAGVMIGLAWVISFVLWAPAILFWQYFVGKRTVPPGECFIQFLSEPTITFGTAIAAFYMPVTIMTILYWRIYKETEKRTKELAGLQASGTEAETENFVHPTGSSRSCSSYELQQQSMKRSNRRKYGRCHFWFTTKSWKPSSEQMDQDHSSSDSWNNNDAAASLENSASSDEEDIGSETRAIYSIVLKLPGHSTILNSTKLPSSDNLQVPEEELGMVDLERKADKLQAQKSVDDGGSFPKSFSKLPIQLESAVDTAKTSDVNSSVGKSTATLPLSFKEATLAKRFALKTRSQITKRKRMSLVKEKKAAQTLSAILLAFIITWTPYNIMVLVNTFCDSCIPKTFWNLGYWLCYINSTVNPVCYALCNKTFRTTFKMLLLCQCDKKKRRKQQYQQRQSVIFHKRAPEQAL

By EC50 is commonly meant the concentration that produces a half-maximal response. Consider `O=C1CO[C@H]2CCCC[C@@H]2N1C1CCN(C2CCC(COCC(F)F)CC2)CC1` (single isomer, unassigned) [Example 26], for which the EC50 in assay [1] was 17 nM; in assay [2] it was more than 40000 nM; in assay [3], more than 40000 nM.

With `CCOCC1CCC(N2CCC(N3C(=O)CO[C@H]4CCCC[C@@H]43)CC2)C1` (single isomer, unassigned) [Example 44], the figures for the EC50 in assay [1], in assay [2] and in assay [3] were 0.97 nM, more than 10000 nM and 2920 nM, respectively.
